The assay can be described thus: potency of AGP1-GFP expression modulators in yeast, dose response, cell-based, flow cytometry, S. cerevisiae, MLPCN hits (AID 2743). The following applies: S. cerevisiae AGP1-GFP strain, flow cytometry GFP, 3 h; at 33 µM (top of the series). In general terms: A flow cytometer gives signals particle by particle.

The values that follow come from PubChem BioAssay AID2743 (NMMLSC, 2010).

SMILES strings stand for the structures. “And” between values parts separate entries of the source, which are not always exact repeats. Identical values can stand only once. The source made the active and inactive calls.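 How the source made its calls: active means fitted half-maximal concentration for change in GFP expression of 33 µM or less; inactive means the rest.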

Turning to `O=C(c1ccc(Cl)c([N+](=O)[O-])c1)N1CCN(c2ccccc2)CC1`, the GFP fluorescence (kMESF) was 62.6 kMESF (inactive). As for `O=C(CCS(=O)(=O)c1ccccc1)Nc1nc(-c2ccccn2)cs1`, the figure is 35.9 kMESF (inactive); as for `O=C1ON=C(c2ccccc2)/C1=C/c1ccc(-c2ccccc2[N+](=O)[O-])o1`, 29.1 kMESF (inactive). Turning to `CCC(C)/C(C)=N/NC(=O)c1ccc(COc2ccc(Cl)c(C)c2)cc1` (stereo unspecified), the GFP fluorescence (kMESF) is 41.2 kMESF (inactive).

`Oc1c(I)cc(Cl)c2cccnc12`: the GFP fluorescence (kMESF) is 25 kMESF (inactive). As for `COc1ccc(OC)c(S(=O)(=O)ON2C(=O)c3ccccc3C2=O)c1`, the figure is 39.4 kMESF (inactive); as for `CC1(C)C[C@H]2C=C(C=O)[C@]3(C=O)C[C@]3(C)[C@H]2C1`, 36.7 kMESF (inactive). As for `Oc1ccc2ccccc2c1/C=N/Nc1nnc(-c2ncc[nH]2)c2ccccc12`, the figure is 21.8 kMESF (inactive). For the molecule `CCOC(=O)Cn1cc(/C=C/[N+](=O)[O-])c2ccccc21`, the GFP fluorescence (kMESF) was 43.7 kMESF (inactive).

Take `Cc1ccc(NC(=O)ON=C2CCCC2)cc1`: the GFP fluorescence (kMESF) was 26.4 kMESF (inactive). As for `Cc1cc(NC(=O)c2cccnc2Cl)ccc1NC(=O)c1cc2ccccc2o1`, the figure is 42.4 kMESF (inactive); as for `CCN(CC)c1ccc(/C=C2/C(=O)c3ccc(C(=O)O)cc3C2=O)cc1`, 655 kMESF (inactive); as for `COc1ccc(OCC(=O)NNC(=S)NC(=O)C2CCCCC2)cc1`, 35.6 kMESF (inactive). `Cc1ccccc1[C@]1(C)ON(c2ccccc2C(F)(F)F)C1=O`: the GFP fluorescence (kMESF) was 34.6 kMESF (inactive).

On to `O=C(Nc1nnc(-c2ccc(F)cc2)o1)c1cc(Cl)sc1Cl`, for which the GFP fluorescence (kMESF) was 40.6 kMESF (inactive). As for `O=C(NNC(=S)NC(=O)C12CC3CC(CC(C3)C1)C2)c1ccncc1`, the figure is 33.2 kMESF (inactive). Consider `Oc1c(I)cc(I)c2cccnc12`, for which the GFP fluorescence (kMESF) is 24.6 kMESF (inactive).

Consider `Cc1cc(C(=O)Nc2nc(-c3ccccn3)cs2)ccc1[N+](=O)[O-]`, for which the GFP fluorescence (kMESF) is 44.4 kMESF (inactive). As for `O=C(OCn1ncc(Br)c(Br)c1=O)c1ccc(F)cc1`, the figure is 43.7 kMESF (inactive). As for `CCOC(=O)/C(=C\c1cn(C)c2ccccc12)[N+](=O)[O-]`, the figure is 41.9 kMESF (inactive); as for `COc1ccccc1N=Cc1nc(-c2ccccc2)oc1OC(C)=O`, 35.1 kMESF (inactive); as for `COc1cccc(N=Cc2nc(-c3ccccc3)oc2OC(C)=O)c1`, 35.9 kMESF (inactive). Take `N#Cc1cc([N+](=O)[O-])c(-n2nnc3ccccc32)c([N+](=O)[O-])c1`: the GFP fluorescence (kMESF) is 41.5 kMESF (inactive). As for `O=C1N(c2ccccc2C(F)(F)F)OC1(Cc1ccccc1)c1ccccc1` (stereo unspecified), the figure is 41.5 kMESF (inactive); as for `O=[N+]([O-])c1ccc(S(=O)(=O)c2ccccc2)nc1`, 44.6 kMESF (inactive); as for `CCOc1cc(C=C2C(=O)c3ccccc3C2=O)ccc1OCC(=O)Nc1ccc(C)cc1`, 36.1 kMESF (inactive).

For the molecule `COc1ccc(N=Cc2nc(-c3ccccc3)oc2OC(=O)c2ccccc2)cc1`, the GFP fluorescence (kMESF) was 39.5 kMESF (inactive). As for `COc1ccccc1[C@]1(C)ON(c2ccccc2C(F)(F)F)C1=O`, the figure is 30.3 kMESF (inactive). In the case of `O=c1cc(-c2ccccc2)cc(-c2ccccc2)n1O`, the GFP fluorescence (kMESF) was 22.5 kMESF (inactive).

In the case of `O=C1ON=C(c2ccccc2)/C1=C/c1ccco1`, the GFP fluorescence (kMESF) is 41.7 kMESF (inactive). Regarding `CCc1cc(C(=O)Nc2nc(-c3ccccn3)cs2)sc1C`, the GFP fluorescence (kMESF) was 29.2 kMESF (inactive). With `Cc1ccccc1[C@@]1(C)ON(c2ccccc2C(F)(F)F)C1=O`, the GFP fluorescence (kMESF) is 29.8 kMESF (inactive). As for `COc1ccc(C(=O)/C=C2/C(=O)Nc3ccccc32)c(OC)c1`, the figure is 43.2 kMESF (inactive); as for `Nc1ccccc1C#CC(=O)c1ccccc1`, 31.7 kMESF (inactive); as for `CC[C@H](C)/C=C(C)/C=C/C1=CC2=C(Cl)C(=O)[C@@](C)(OC(C)=O)C(=O)C2=CO1`, 1.57 kMESF (inactive).

With `O=C1ON=C(c2ccccc2)/C1=C\c1ccco1`, the GFP fluorescence (kMESF) was 42.7 kMESF (inactive). Turning to `CCOc1ccc(N2C(=O)/C(=C\c3cccs3)C(=O)NC2=S)cc1`, the GFP fluorescence (kMESF) was 27.9 kMESF (inactive). As for `CCN(CC)c1ccc2cc(-c3nc4ccccc4[nH]3)c(=O)oc2c1`, the figure is 48.4 kMESF (inactive); as for `CCCCCCCCC/C(=N\O)c1ccccn1`, 34.8 kMESF (inactive); as for `Cc1ccc(/C=c2\sc3nc(-c4cccs4)nn3c2=O)o1`, 42.1 kMESF (inactive).

For `Cc1ccc(NC(=O)c2cc(N3C(=O)C=CC3=O)ccc2Cl)cc1C`, the GFP fluorescence (kMESF) was 23.9 kMESF (inactive). In the case of `C=CCOc1cccc(C(=O)/C=C2/C(=O)Nc3ccccc32)c1`, the GFP fluorescence (kMESF) was 43.2 kMESF (inactive). Consider `CCOC(=O)c1c(C)oc2c1c(C(c1cccnc1)N1CCOCC1)c(O)c1ccccc12` (stereo unspecified), for which the GFP fluorescence (kMESF) is 29.9 kMESF (inactive). As for `C=CCOc1ccccc1C(=O)/C=C1/C(=O)Nc2ccccc21`, the figure is 43.2 kMESF (inactive).

Regarding `COc1ccccc1N=Nc1ccc(O)c2ncccc12`, the GFP fluorescence (kMESF) is 49.5 kMESF (inactive).

As for `CN(Cc1cnc2nc(N)nc(N)c2n1)c1ccc(C(=O)N[C@@H](CCC(=O)O)C(=O)O)cc1`, the GFP fluorescence (kMESF) was 45.5 kMESF (inactive) and 51.9 kMESF (inactive). As for `CC(C)Oc1ccc(C(=O)/C=C2/C(=O)Nc3ccccc32)cc1`, the GFP fluorescence (kMESF) was 46.3 kMESF (inactive). In the case of `[O-][n+]1cccc2c(Br)cc(Br)c(O)c21`, the GFP fluorescence (kMESF) is 50.1 kMESF (inactive). As for `COC(CNC(=O)c1ccc2c3c(onc13)-c1ccccc1C2=O)OC`, the figure is 1.89 kMESF (inactive); as for `N/C(Cc1ccc(Cl)c(Cl)c1)=N\OC(=O)c1cccs1`, 29.8 kMESF (inactive); as for `Cc1cccc(C(=O)NNC(=S)NC(=O)c2ccccc2)c1`, 44.8 kMESF (inactive). As for `O=[N+]([O-])c1cc(F)c2cccnc2c1O`, the figure is 43.3 kMESF (inactive); as for `O=c1c2cnn(-c3ccccc3)c2ncn1Cc1ccco1`, 29.6 kMESF (inactive); as for `O=[N+]([O-])c1cc(S(=O)(=O)C(F)(F)F)ccc1Sc1nc2ccccc2s1`, 39.1 kMESF (inactive). With `O=C(/C=C/c1ccc(Br)cc1)NC(=S)NNC(=O)c1ccco1`, the GFP fluorescence (kMESF) is 36.3 kMESF (inactive). As for `CCN(CC)C(=S)SSC(=S)N(CC)CC`, the figure is 37.5 kMESF (inactive). As for `COc1cc(NC(=O)c2ccccc2[N+](=O)[O-])ccc1NC(=O)c1cc2ccccc2o1`, the figure is 44.3 kMESF (inactive); as for `C/C(=N\NC(=O)c1cccc(Br)c1)c1ccccn1`, 42.1 kMESF (inactive). As for `CCOC(=O)CSC1=NC(=O)/C(=C\c2ccc(Cl)cc2)S1`, the figure is 41.8 kMESF (inactive); as for `Cc1ccc(S(=O)(=O)c2ccc([N+](=O)[O-])cn2)cc1`, 40.7 kMESF (inactive). With `Cc1ccc(S(=O)(=O)ON2C(=O)c3ccccc3C2=O)c(C)c1`, the GFP fluorescence (kMESF) is 33 kMESF (inactive). As for `CC(=O)Oc1ccc(N2C(=O)C3C4C=CC(CO)(O4)C3C2=O)cc1` (stereo unspecified), the figure is 41.3 kMESF (inactive); as for `CCCCS(=O)(=O)/C=C\C=C/S(=O)(=O)CCCC`, 26.3 kMESF (inactive); as for `O=[N+]([O-])c1ccc(-c2cn3nc(-c4ccccc4)c(-c4ccccc4)nc3n2)cc1`, 39.6 kMESF (inactive). As for `COc1ccc(C2=CC(=O)N(Nc3ccccc3)C2=O)cc1`, the figure is 39.9 kMESF (inactive); as for `O=[N+]([O-])c1cc(CN2CCN(c3cccc(C(F)(F)F)c3)CC2)c2cccnc2c1O`, 32.2 kMESF (inactive); as for `O=c1c2cc(Cl)ccc2nc(-c2ccc([N+](=O)[O-])cc2)n1O`, 23 kMESF (inactive). As for `N/C(Cc1ccc(Cl)cc1)=N\OC(=O)c1cccc2ccccc12`, the figure is 33 kMESF (inactive). Consider `Nc1nc(N)c2nc(CNc3ccc(C(=O)NC(CCC(=O)O)C(=O)O)cc3)cnc2n1` (stereo unspecified), for which the GFP fluorescence (kMESF) is 46 kMESF (inactive). As for `Cc1cc(C)c(S(=O)(=O)ON2C(=O)c3ccccc3C2=O)cc1C`, the figure is 42.8 kMESF (inactive). In the case of `CCn1c(=O)c(C(=O)Nc2nc3ccccc3[nH]2)c(O)c2ccccc21`, the GFP fluorescence (kMESF) is 12.8 kMESF (inactive).

As for `Cc1ccc(N2C(=O)CC(Sc3ncn[nH]3)C2=O)cc1C` (stereo unspecified), the GFP fluorescence (kMESF) is 49.6 kMESF (inactive). As for `Nc1c(C(=O)c2cccs2)sc2nsc(SCCN3CCCCC3)c12`, the figure is 35.6 kMESF (inactive). On to `Cc1ccc2nc(/C(C#N)=C/c3ccc(O)c(O)c3)[nH]c2c1`, for which the GFP fluorescence (kMESF) is 41.6 kMESF (inactive).

For the molecule `O=[N+]([O-])c1cc(O)c2ncccc2c1`, the GFP fluorescence (kMESF) was 42.7 kMESF (inactive). As for `N/C(=N\OC(=O)c1cc(Br)ccc1Cl)c1ccccn1`, the figure is 31.3 kMESF (inactive). As for `COc1cc(C=C2C(=O)c3ccccc3C2=O)cc(OC)c1`, the figure is 38 kMESF (inactive); as for `O=c1[nH]c(-c2ccc(Cl)cc2)cs1`, 39.4 kMESF (inactive); as for `Cc1ccc(C(c2cc(Cl)c3cccnc3c2O)N2CCN(C)CC2)cc1` (stereo unspecified), 27.9 kMESF (inactive). As for `Cc1cc(C)c2c(c1)/C(=C/C(=O)c1ccc(Br)s1)C(=O)N2`, the figure is 42.9 kMESF (inactive). In the case of `CC[C@]1(c2ccccc2OC)ON(c2ccccc2C(F)(F)F)C1=O`, the GFP fluorescence (kMESF) was 32.6 kMESF (inactive).
